Consider seven compounds from patent US10351500B2, “Method of using of dihydro-resveratrol or its stilbenoid derivatives and/or chemical variants as antimicrobial agents” (Hong Kong Baptist University, priority 2015, dated 2019).

The subject of assay [1] is Trichophyton mentagrophytes. In words: anti-fungal growth inhibition, T. mentagrophytes. The assay is classed as cell-based. The note with it: T. mentagraphytes; for inhibition at 25 µM / inhibition at 50 µM / inhibition at 100 µM: Trichophyton mentagrophytes, 168 h, one week, 30° C., OD 510 nm; for inhibition at 25 µM: read-out: Inhibition rate (25 μM); for inhibition at 50 µM: read-out: Inhibition rate (50 μM); for inhibition at 100 µM: read-out: Inhibition rate (100 μM). The protocol: (§1) Evaluation of anti-fungal activity. In a single well of the 96-well microplate, 10 μL of the testing compound is added into 190 μL of growth medium (Difco™ YM) containing an overnight culture of Trichophyton rubrum or Trichophyton mentagrophytes at a density of approximately 5×10^5 CFU. The testing compounds include dihydro-resveratrol and DR1 to DR11. Wells incubated with 10 μL 0.5% DMSO only (i.e. no testing compound) are served as the experimental control of fungal growth whilst those incubated with growth medium only (i.e. no fungi) are served as the negative control. […] The percentage of growth inhibition of T. mentagrophytes by the different concentrations of testing compounds is shown in Table 10 whilst the percentage of growth inhibition of T. rubrum is shown in Table 11. The images of T. mentagrophytes culture are captured post treatment of dihydro-resveratrol (100 μM) and DR8 (100 μM) when compared to the growth of experimental control and negative control (FIG. 30).

Another assay has as its system Trichophyton rubrum. In words: anti-fungal growth inhibition, T. rubrum. The assay is classed as cell-based. The note with it: T. rubrum; for inhibition at 25 µM / inhibition at 50 µM / inhibition at 100 µM: Trichophyton rubrum, 168 h, one week, 30° C., OD 510 nm; for inhibition at 25 µM: read-out: Inhibition rate (25 μM); for inhibition at 50 µM: read-out: Inhibition rate (50 μM); for inhibition at 100 µM: read-out: Inhibition rate (100 μM). As for the experimental part:
as §1

A further assay deals with Streptococcus sobrinus. Description: anti-bacterial growth inhibition, S. sobrinus. It is filed as cell-based. The note with it: S. sobrinus; for inhibition at 25 µM / inhibition at 50 µM / inhibition at 100 µM: Streptococcus sobrinus, 10 hours, 30° C., OD 600 nm; for inhibition at 25 µM: read-out: Inhibition rate (25 μM); for inhibition at 50 µM: read-out: Inhibition rate (50 μM); for inhibition at 100 µM: read-out: Inhibition rate (100 μM). The protocol:
(§2) Evaluation of anti-bacterial activity. In a single well of the 96-well microplate, 10 μL of the testing compound is added into 190 μL of growth medium growth medium (BBL™ Brain Heart Infusion) containing an overnight culture of Streptococcus mutans or Streptococcus sobrinus at a density of approximately 5×10^5 CFU. The testing compounds include dihydro-resveratrol and DR1 to DR11. Wells incubated with 10 μL 0.5% DMSO only (i.e. no testing compound) are served as the experimental control of bacterial growth whilst those incubated with growth medium only (i.e. no bacteria) are served as the negative control. […] The percentage of growth inhibition of S. mutans by the different concentrations of testing compounds is shown in Table 12 whereas the percentage of growth inhibition of S. sobrinus is shown in Table 13. The images of S. mutans culture are captured post treatment of dihydro-resveratrol (100 μM) and DR8 (100 μM) when compared to the growth of experimental control and negative control (FIG. 31).

Assay [2] can be described thus: ABTS radical decolorization assay (antioxidant capacity). It is filed as biochemical. The note with it: 15 min, 734 nm.
The next assay relates to Streptococcus mutans. Description: anti-bacterial growth inhibition, S. mutans. It is filed as cell-based. The following applies: S. mutans; for inhibition at 25 µM / inhibition at 50 µM / inhibition at 100 µM: Streptococcus mutans, 10 hours, 30° C., OD 600 nm; for inhibition at 25 µM: read-out: Inhibition rate (25 μM); for inhibition at 50 µM: read-out: Inhibition rate (50 μM); for inhibition at 100 µM: read-out: Inhibition rate (100 μM). The protocol: as §2

Assay [3] relates to HCT-116 human colorectal carcinoma xenograft tumor. Description: HCT-116 nude mouse xenograft model. It is filed as in vivo, BALB/c nude mice. The following applies: i.p. every other day, 5-FU 25 mg/kg, D-res 100 mg/kg. From the text: All animal studies were approved and performed according to Animal Care and Use Guidelines of the Animal Ethics Committee at Hong Kong Baptist University. BALB/c nude mice, SPF class, male, 6-8 weeks old, were purchased from BioLASCO, Taiwan. Before the xenograft experiment, the mice were acclimatized to SPF class laboratory conditions for a week.
HCT-116 cells in logarithmic growth phase were collected by trypsinization. After centrifugation and rinsing, cells were re-suspended in serum-free DMEM medium at 3×10^7 cells/mL. Nude mice were skin disinfected with 75% medical ethanol, subcutaneously injected with 100 μL of the HCT-116 cell suspension using a 25-G syringe to their left flank. The same procedure was repeated for the tumor cell injection to the right flank.
Seven days after tumor cell injection, 24 mice with tumor volumes of 32 mm^3 to 178 mm^3 were randomly assigned into 3 groups; the average initial tumor volumes in each group of mice were 78.04±7.76 mm^3 (vehicle, 8 mice), 78.76±9.40 mm^3 (5-FU, 8 mice), 78.01±7.75 mm^3 (D-res, 8 mice) respectively.
Vehicle solution: 2.5% Ethanol and Cremphor EL (1:1 v/v) dissolved in physiological saline.
5-FU solution: 5-FU powder was dissolved in 2.5% Ethanol and Cremphor EL to a concentration of 5 mg/mL.
D-res solution: Dihydro-resveratrol powder was dissolved in 2.5% Ethanol and Cremphor EL solution to a concentration of 20 mg/mL.
Vehicle group (n=8): 2.5% Ethanol and Cremphor EL solution was intraperitoneally injected every other day for 21 days.
5-FU group (n=8): 5-FU solution was given to mice at 25 mg/kg by intraperitoneal injection every other day for 21 days.
D-res group (n=8): D-res solution was given to mice at 100 mg/kg by intraperitoneal injection every other day for 21 days. This is equivalent to a dosage of no less than 8.13 mg/kg of bodily weight in human.

As to `CCCC(=O)Oc1ccc(CCc2cc(OC(=O)CCC)cc(OC(=O)CCC)c2)cc1` [DR4], the inhibition at 25 µM is 6.03% in assay [1], 11.2% in the assay on Trichophyton rubrum, 7.35% with Streptococcus sobrinus and 6.64% in the assay with Streptococcus mutans. Besides, the inhibition at 50 µM came to 10.4% in assay [1], 16.6% in the assay with Trichophyton rubrum, 20.6% in the assay on Streptococcus sobrinus and 3.99% in the assay with Streptococcus mutans. Besides, the inhibition at 100 µM in assay [1] turned out to be 32.6%; with Trichophyton rubrum, 36.1%; in the assay on Streptococcus sobrinus, 18.1%; with Streptococcus mutans, 6.35%. Also, in assay [2], the “Trolox equivalent (mg), antioxidant capacity” value (shortened to “Trolox equivalent (mg)”) is 94.277 mg.

Take `CC(C)(C)C(=O)Oc1ccc(CCc2cc(OC(=O)C(C)(C)C)cc(OC(=O)C(C)(C)C)c2)cc1` [DR11]: the inhibition at 25 µM in assay [1] was 13.1%; in the assay on Trichophyton rubrum it was 8.1%; in the assay with Streptococcus sobrinus, 10.5%; in the assay on Streptococcus mutans it was 5.49%. In addition, the inhibition at 50 µM came out at 13.4% in assay [1], 7.58% in the assay on Trichophyton rubrum, 12.6% in the assay with Streptococcus sobrinus and 6.86% with Streptococcus mutans. The inhibition at 100 µM in assay [1] worked out at 9.36%; in the assay on Trichophyton rubrum, 9.54%; in the assay on Streptococcus sobrinus, 0.18%; with Streptococcus mutans, 4.13%. The “Trolox equivalent (mg)” value in assay [2] was determined as 0 mg.

As for `CCCOc1ccc(CCc2cc(OCCC)cc(OCCC)c2)cc1` [DR2], the inhibition at 25 µM in assay [1] is 4.72%; with Trichophyton rubrum it was 14.1%; in the assay on Streptococcus sobrinus, 6.33%; in the assay with Streptococcus mutans, 0.04%. The inhibition at 50 µM in assay [1] came to 9.81%; in the assay on Trichophyton rubrum, 18.3%; in the assay on Streptococcus sobrinus it was 19.9%; in the assay on Streptococcus mutans, 3.62%. The inhibition at 100 µM was determined as 33.7% in assay [1], 37.8% with Trichophyton rubrum, 19% with Streptococcus sobrinus and 3.65% with Streptococcus mutans. Moreover, the “Trolox equivalent (mg)” value in assay [2] amounted to 30.178 mg.

In the case of `O=c1[nH]cc(F)c(=O)[nH]1` [Compound 5-FU, fluorouracil, reference compound], the “Tumor Volume (mm^3)” value is 78.76 ± 9.40 mm^3 in assay [3] (Day 1 (initial)); 128.05 ± 12.25 mm^3 in assay [3] (Day 4); 187.75 ± 21.56 mm^3 in assay [3] (Day 7); 286.6 ± 28.89 mm^3 in assay [3] (Day 10); 419.1 ± 45.77 mm^3 in assay [3] (Day 13); 489.8 ± 160.66 mm^3 in assay [3] (Day 16). In addition, the “Tumor Volume (mm^3)” value in assay [3] (Day 19) came to 514.17 ± 160.66 mm^3; in assay [3] (Day 21) it was 583.6 ± 160.66 mm^3; in assay [3] (Day 22) it was 655.69 ± 160.66 mm^3. Moreover, in assay [3] (treated for 21 days), the “Tumor weight” value came out at 0.68 ± 0.08 g.

`C=CC(=O)Oc1ccc(CCc2cc(OC(=O)C=C)cc(OC(=O)C=C)c2)cc1` [DR8]: the “inhibitory effect among the testing compounds” value (in assay [1] (one-week incubation); in the assay on Trichophyton rubrum (one-week incubation); in the assay with Streptococcus sobrinus (10-hour incubation); in the assay on Streptococcus mutans (10-hour incubation)) was “highest inhibitory effect” in each case. Besides, the inhibition at 25 µM stood at 83.1% in assay [1], 78.9% in the assay with Trichophyton rubrum, 22.7% in the assay on Streptococcus sobrinus and 17.1% in the assay on Streptococcus mutans. For the same compound, the inhibition at 50 µM in assay [1] came to 80.7%; in the assay with Trichophyton rubrum, 77.8%; in the assay on Streptococcus sobrinus, 43.8%; in the assay on Streptococcus mutans it was 17.6%. The inhibition at 100 µM in assay [1] is 78.8%; in the assay on Trichophyton rubrum, 77.7%; in the assay with Streptococcus sobrinus, 79.3%; in the assay on Streptococcus mutans it was 68%. The “Trolox equivalent (mg)” value in assay [2] turned out to be 15.893 mg.

On to `CCOC(=O)COc1ccc(CCc2cc(OCC(=O)OCC)cc(OCC(=O)OCC)c2)cc1` [DR1], for which the inhibition at 25 µM was 4.33% in assay [1], 3.25% in the assay with Trichophyton rubrum, 9.96% with Streptococcus sobrinus and 2.31% with Streptococcus mutans. Further, the inhibition at 50 µM in assay [1] is 11.2%; in the assay with Trichophyton rubrum it was 1.15%; with Streptococcus sobrinus, 27.7%; in the assay on Streptococcus mutans, 8.55%. The inhibition at 100 µM in assay [1] worked out at 36.4%; in the assay with Trichophyton rubrum it was 22.6%; in the assay on Streptococcus sobrinus, 14.2%; with Streptococcus mutans, 4.78%. Besides, the “Trolox equivalent (mg)” value in assay [2] came to 105.736 mg.

Regarding `O=C(Oc1ccc(CCc2cc(OC(=O)C3CCCC3)cc(OC(=O)C3CCCC3)c2)cc1)C1CCCC1` [DR9], the inhibition at 25 µM in assay [1] was determined as 2.19%; in the assay on Trichophyton rubrum it was 7.05%; with Streptococcus sobrinus, 14.3%; in the assay with Streptococcus mutans it was 0.68%. Besides, the inhibition at 50 µM in assay [1] was found to be 14.7%; in the assay on Trichophyton rubrum, 2.57%; in the assay on Streptococcus sobrinus, 0.13%; in the assay with Streptococcus mutans it was 6.36%. Further, the inhibition at 100 µM in assay [1] is 25.9%; with Trichophyton rubrum, 1.5%; in the assay on Streptococcus sobrinus it was 9.87%; in the assay with Streptococcus mutans, 8.39%. Besides, the “Trolox equivalent (mg)” value in assay [2] is 0 mg.
